According to patent publication US10544095B2 (Pfizer Inc., priority 2015, dated 2020):

Molecular target: hTDO2 in human glioblastoma A172 cells (Homo sapiens (Human), UniProt P48775)
Assay: Cellular assay for TDO2 activity determination in A172 cells
Assay type: cell-based
Details: overnight incubation, kynurenine absorbance at 480 nm
Experimental: The compounds of formula I inhibit the activity of human TDO2 in cells that constitutively express TDO2, such as A172 cells. A172 is a cell line derived from human brain glioblastoma cells. The cells are available from the American Type Culture Collection (ATCC®) as CRL-1620™.
The assay (adapted from Pilotte L et al., Proc Natl Acad Sci USA, 2012, 109(7), 2497-502) was performed in 96-well flat bottom plates seeded with human glioblastoma A172 cells, naturally expressing hTDO2 (prepared as described in Tilman et al., Mol Cancer, 2007, 17(6), 80), at a concentration of 1.25×10^4 cells/well in a final volume of 200 μL. To determine TDO, the cells were incubated overnight at 37° C. at 5% CO2 in IMDM (Invitrogen) supplemented with 2% FBS and 2% penicillin/streptomycin in the presence of the compounds of the present invention, at different concentrations.
The plates were then centrifuged 5 min at 1000 rpm, and 100 μL of the supernatant were collected in a conical plate, 30 μL of TCA 30% were added and a further centrifuged at 3000×g for 10 minutes. 100 μL of the supernatant were collected in a flat bottomed plate and 100 μL of 2% (w/v) 4-(dimethylamino)-benzaldehyde in acetic acid and incubated for 5 min at room temperature. Kynurenine concentrations were determined by measuring the absorbance at 480 nm. A standard curve was made with pure kynurenine. The TDO activity was measured as described above using ten serial concentrations of the compounds of the present invention. Data were fitted using the Prism™ software (GraphPad Software, Inc.) using standard parameters.

Chain of hTDO2 in human glioblastoma A172 cells (P48775 whole entry): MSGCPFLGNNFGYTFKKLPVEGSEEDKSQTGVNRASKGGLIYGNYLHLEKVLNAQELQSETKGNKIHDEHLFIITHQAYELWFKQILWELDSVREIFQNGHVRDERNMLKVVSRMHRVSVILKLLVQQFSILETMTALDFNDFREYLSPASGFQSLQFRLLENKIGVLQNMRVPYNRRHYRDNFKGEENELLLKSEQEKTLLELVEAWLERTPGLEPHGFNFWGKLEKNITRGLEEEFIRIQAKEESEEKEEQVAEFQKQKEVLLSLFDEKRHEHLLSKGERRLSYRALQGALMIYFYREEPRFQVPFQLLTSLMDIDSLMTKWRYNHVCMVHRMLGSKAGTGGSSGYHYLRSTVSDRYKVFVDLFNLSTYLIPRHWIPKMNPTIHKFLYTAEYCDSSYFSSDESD

IC50 | SMILES
283 nM | O=S(=O)(NCCO)c1ccc(-c2c[nH]c3cc(F)ccc23)c(Cl)c1 [Example 158, 3-chloro-4-(6-fluoro-1H-indol-3-yl)-N-(2-hydroxyethyl) benzenesulfonamide]
90000 nM | Cc1nccn1CC1(O)CCN(S(=O)(=O)c2ccc(-c3c[nH]c4cc(F)ccc34)cc2)C1 (stereo not shown) [Example 131, 1-((4-(6-fluoro-1H-indol-3-yl)phenyl)sulfonyl)-3-((2-methyl-1H-imidazol-1-yl)methyl)pyrrolidin-3-ol]
260 nM | O=C(CCNS(=O)(=O)c1ccc(-c2c[nH]c3cc(F)ccc23)cc1)N1CCNCC1 [Example 102, 4-(6-fluoro-1H-indol-3-yl)-N-(3-oxo-3-(piperazin-1-yl)propyl) benzenesulfonamide]
210 nM | CN(C)C(=O)CCNS(=O)(=O)c1ccc(-c2c[nH]c3cc(F)ccc23)cc1 [Example 49, 3-(4-(6-fluoro-1H-indol-3-yl)phenylsulfonamido)-N,N-dimethylpropanamide]
247 nM | NS(=O)(=O)c1ccc(-c2c[nH]c3cc(F)ccc23)cc1CC(F)(F)F [Example 142, 4-(6-fluoro-1H-indol-3-yl)-2-(2,2,2-trifluoroethyl)-benzenesulfonamide]
600 nM | O=S(=O)(c1ccc(-c2c[nH]c3cc(F)ccc23)c(F)c1)N1CCNCC1 [Example 22, 6-fluoro-3-(2-fluoro-4-(piperazin-1-ylsulfonyl)-phenyl)-1H-indole]
174 nM | NC(=O)Cc1cc(-c2c[nH]c3cc(F)ccc23)ccc1S(N)(=O)=O [Example 144, 2-(5-(6-fluoro-1H-indol-3-yl)-2-sulfamoylphenyl)-acetamide]
270 nM | NC(=O)CCNS(=O)(=O)c1ccc(-c2c[nH]c3cc(F)ccc23)cc1C(F)(F)F [Example 168, 3-((4-(6-fluoro-1H-indol-3-yl)-2-(trifluoromethyl)phenyl)-sulfonamido)propanamide]
700 nM | NCc1cc(-c2c[nH]c3cc(F)ccc23)ccc1S(N)(=O)=O [Example 177, 2-(aminomethyl)-4-(6-fluoro-1H-indol-3-yl)benzenesulfonamide]
511 nM | O=C(CCNS(=O)(=O)c1ccc(-c2c[nH]c3cc(F)ccc23)cc1)N1C[C@@H](O)[C@@H](O)C1 [Example 169, N-(3-((cis)-3,4-dihydroxypyrrolidin-1-yl)-3-oxopropyl)-4-(6-fluoro-1H-indol-3-yl)benzenesulfonamide]
92000 nM | C[C@]1(O)CCN(S(=O)(=O)c2ccc(-c3c[nH]c4cc(F)ccc34)cc2)C1 [Example 116, (S)-1-((4-(6-fluoro-1H-indol-3-yl)phenyl)sulfonyl)-3-methylpyrrolidin-3-ol]
341 nM | COCc1cc(-c2c[nH]c3cc(F)ccc23)ccc1S(=O)(=O)NCCC(N)=O [Example 165, 3-((4-(6-fluoro-1H-indol-3-yl)-2-(methoxymethyl)phenyl)-sulfonamido) propanamide]
3500 nM | NCCNS(=O)(=O)c1ccc(F)c(-c2c[nH]c3cc(F)ccc23)c1 [Example 62, N-(2-aminoethyl)-4-fluoro-3-(6-fluoro-1H-indol-3-yl)benzene-sulfonamide]
910 nM | COc1ccc(-c2c[nH]c3cc(F)ccc23)cc1S(=O)(=O)NCCN [Example 33]
41 nM | NC(=O)CCNS(=O)(=O)c1ccc(-c2c[nH]c3cc(F)ccc23)cc1CO [Example 167, 3-((4-(6-fluoro-1H-indol-3-yl)-2-(hydroxymethyl)-phenyl)sulfonamido)propanamide]
250 nM | CN(CCCC(N)=O)S(=O)(=O)c1ccc(-c2c[nH]c3cc(F)ccc23)cc1 [Example 54, 4-(4-(6-fluoro-1H-indol-3-yl)-N-methylphenylsulfonamido)-butanamide]
90500 nM | Cn1nccc1C1(O)CCN(S(=O)(=O)c2ccc(-c3c[nH]c4cc(F)ccc34)cc2)C1 (stereo not shown) [Example 113, 1-((4-(6-fluoro-1H-indol-3-yl)phenyl)sulfonyl)-3-(1-methyl-1H-pyrazol-5-yl)pyrrolidin-3-ol]
150 nM | O=S(=O)(NCCc1ncc[nH]1)c1ccc(-c2c[nH]c3cc(F)ccc23)cc1 [Example 73, N-(2-(1H-imidazol-2-yl)ethyl)-4-(6-fluoro-1H-indol-3-yl)benzenesulfonamide]

IC50 | SMILES
550 nM | CNC(=O)Cc1cc(-c2c[nH]c3cc(F)ccc23)ccc1S(N)(=O)=O [Example 143, 2-(5-(6-fluoro-1H-indol-3-yl)-2-sulfamoylphenyl)-N-methylacetamide]
86000 nM | Cc1nccn1CC1(O)CCCN(S(=O)(=O)c2ccc(-c3c[nH]c4cc(F)ccc34)cc2)C1 (stereo not shown) [Example 122, 1-((4-(6-fluoro-1H-indol-3-yl)phenyl)sulfonyl)-3-((2-methyl-1H-imidazol-1-yl)methyl) piperidin-3-ol]
4060 nM | CC(C)Oc1cc(-c2c[nH]c3cc(F)ccc23)ccc1S(=O)(=O)NCCC(N)=O [Example 166, 3-((4-(6-fluoro-1H-indol-3-yl)-2-isopropoxyphenyl)-sulfonamido)propanamide]
100 nM | CNS(=O)(=O)CCN(C)S(=O)(=O)c1ccc(-c2c[nH]c3cc(F)ccc23)cc1 [Example 100, 4-(6-fluoro-1H-indol-3-yl)-N-methyl-N-[2-(methylsulfamoyl)ethyl]benzenesulfonamide]
240 nM | O=C(CCNS(=O)(=O)c1ccc(-c2c[nH]c3cc(F)ccc23)cc1)N[C@H]1CCOC1 [Example 104, (−)-(S)-3-(4-(6-fluoro-1H-indol-3-yl)phenylsulfonamido)-N-(tetrahydrofuran-3-yl)propanamide]
1210 nM | O=C(CCNS(=O)(=O)c1ccc(-c2c[nH]c3cc(F)ccc23)cc1)N1C[C@@H](O)[C@H](O)C1 [Example 170, (+)-N-(3-((3R,4R)-3,4-dihydroxypyrrolidin-1-yl)-3-oxopropyl)-4-(6-fluoro-1H-indol-3-yl) benzenesulfonamide]
18000 nM | NC(=O)n1cc(-c2ccc(S(=O)(=O)N3CCNCC3)cc2)c2ccc(F)cc21 [Example 78, 6-fluoro-3-(4-(piperazin-1-ylsulfonyl)phenyl)-1H-indole-1-carboxamide]
9600 nM | CN(C)C(=O)n1cc(-c2ccc(S(=O)(=O)N3CCNCC3)cc2)c2ccc(F)cc21 [Example 47, 6-fluoro-N,N-dimethyl-3-(4-(piperazin-1-ylsulfonyl)phenyl)-1H-indole-1-carboxamide]
109 nM | O=S(=O)(c1ccc(-c2c[nH]c3cc(F)ccc23)cc1)N(CCO)CCCO [Example 117, 4-(6-fluoro-1H-indol-3-yl)-N-(2-hydroxyethyl)-N-(3-hydroxypropyl)benzenesulfonamide]
145 nM | O=S(=O)(c1ccc(-c2c[nH]c3cc(F)ccc23)cc1)N1C[C@@H](F)C[C@@H]1CO [Example 126, ((2R,4S)-4-fluoro-1-((4-(6-fluoro-1H-indol-3-yl)phenyl)sulfonyl)pyrrolidin-2-yl)methanol]
160 nM | O=S(=O)(c1ccc(-c2c[nH]c3cc(F)ccc23)cc1)N1CC(O)C1 [Example 65, 1-((4-(6-fluoro-1H-indol-3-yl)phenyl)sulfonyl)azetidin-3-ol]
220 nM | O=S(=O)(NC1CCOCC1)c1ccc(-c2c[nH]c3cc(F)ccc23)cc1 [Example 46, 4-(6-fluoro-1H-indol-3-yl)-N-(tetrahydro-pyran-4-yl)-benzenesulfonamide]
120 nM | NS(=O)(=O)c1ccc(-c2c[nH]c3cc(F)ccc23)cc1CCO [Example 139, 4-(6-fluoro-1H-indol-3-yl)-2-(2-hydroxyethyl)-benzenesulfonamide]
146 nM | C[C@@H](O)[C@H](C)N(CCO)S(=O)(=O)c1ccc(-c2c[nH]c3cc(F)ccc23)cc1 [Example 111, 4-(6-fluoro-1H-indol-3-yl)-N-((2S,3R)-3-hydroxybutan-2-yl)-N-(2-hydroxyethyl)benzene sulfonamide]
160 nM | O=C(CCNS(=O)(=O)c1ccc(-c2c[nH]c3cc(F)ccc23)cc1)N[C@@H]1CCOC1 [Example 107, (+)-(R)-3-(4-(6-fluoro-1H-indol-3-yl)phenylsulfonamido)-N-(tetrahydrofuran-3-yl)propanamide]
92000 nM | O=S(=O)(c1ccc(-c2c[nH]c3cc(F)ccc23)cc1)N1C[C@H](F)[C@@H](O)[C@H](O)[C@H]1CO [Example 129, (2R,3R,4S,5S)-5-f1uoro-1-((4-(6-fluoro-1H-indol-3-yl)phenyl)sulfonyl)-2-(hydroxymethyl) piperidine-3,4-diol]
510 nM | O=S(=O)(c1ccc(-c2c[nH]c3cc(F)ccc23)cc1C(F)(F)F)N1CCNCC1 [Example 24, 6-fluoro-3-(4-(piperazin-1-ylsulfonyl)-3-(trifluoromethyl)-phenyl)-1H-indole]
93 nM | C[C@@H](CO)NS(=O)(=O)c1ccc(-c2c[nH]c3cc(F)ccc23)cc1 [Example 101, (−)-(6-fluoro-1H-indol-3-yl)-N-[(2S)-1-hydroxypropan-2-yl]benzenesulfonamide]

SMILES | IC50
CNCCc1cc(-c2c[nH]c3cc(F)ccc23)ccc1S(N)(=O)=O [Example 140, 4-(6-fluoro-1H-indol-3-yl)-2-(2-(methylamino)ethyl)-benzenesulfonamide] | 541 nM
